Measurements reported in PubChem BioAssay AID330 (DTP/NCI, 2004).
Several values for one entry are separate records, joined by “and”; a condition that tells them apart may be missing. Equal entries are not always repeated. Inconclusive results and toxic doses are left out. The calls were made as follows: active = survival T/C of 150% or more; inactive = T/C below 125% in these data.

Tested on: P388 leukemia ip, CD2F1 mice, survival T/C
Test: NCI In Vivo Anticancer Drug Screen. Data for tumor model P388 Leukemia (intraperitoneal) in CD2F1 (CDF1) mice
Details: endpoint: median survival time, higher = longer survival
Procedure, shortened: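 Mice carrying the transplanted tumor received test compound or vehicle. Survival was recorded in each group, and the value is the treated-group measurement divided by that of the vehicle-treated control group.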

[1] = dose: 100.0 mg/kg/injection, schedule: Q01DX001 (ip), vehicle: Klucel (hydroxypropylcellulose) (HPC)
[2] = dose: 200.0 mg/kg/injection, schedule: Q01DX001 (ip), vehicle: Klucel (hydroxypropylcellulose) (HPC)
[3] = dose: 25.0 mg/kg/injection, schedule: Q01DX009 (ip), vehicle: Klucel (hydroxypropylcellulose) (HPC)
[4] = dose: 50.0 mg/kg/injection, schedule: Q01DX009 (ip), vehicle: Klucel (hydroxypropylcellulose) (HPC)
[5] = dose: 50.0 mg/kg/injection, schedule: Q04DX002 (ip), vehicle: Klucel (hydroxypropylcellulose) (HPC)
[6] = dose: 100.0 mg/kg/injection, schedule: Q04DX002 (ip), vehicle: Klucel (hydroxypropylcellulose) (HPC)
[7] = dose: 200.0 mg/kg/injection, schedule: Q04DX002 (ip), vehicle: Klucel (hydroxypropylcellulose) (HPC)
[8] = dose: 100.0 mg/kg/injection, schedule: Q01DX009 (ip), vehicle: Klucel (hydroxypropylcellulose) (HPC)
[9] = dose: 200.0 mg/kg/injection, schedule: Q01DX009 (ip), vehicle: Klucel (hydroxypropylcellulose) (HPC)
[10] = dose: 50.0 mg/kg/injection, schedule: Q01DX005 (ip), vehicle: saline with Tween-80
[11] = dose: 100.0 mg/kg/injection, schedule: Q01DX005 (ip), vehicle: saline with Tween-80
[12] = dose: 200.0 mg/kg/injection, schedule: Q01DX005 (ip), vehicle: saline with Tween-80
[13] = dose: 25.0 mg/kg/injection, schedule: Q01DX005 (ip), vehicle: Klucel (hydroxypropylcellulose) (HPC)
[14] = dose: 50.0 mg/kg/injection, schedule: Q01DX005 (ip), vehicle: Klucel (hydroxypropylcellulose) (HPC)
[15] = dose: 100.0 mg/kg/injection, schedule: Q01DX005 (ip), vehicle: Klucel (hydroxypropylcellulose) (HPC)
[16] = dose: 200.0 mg/kg/injection, schedule: Q01DX005 (ip), vehicle: Klucel (hydroxypropylcellulose) (HPC)
[17] = dose: 6.25 mg/kg/injection, schedule: Q01DX005 (ip), vehicle: saline with Tween-80
[18] = dose: 12.5 mg/kg/injection, schedule: Q01DX005 (ip), vehicle: saline with Tween-80
[19] = dose: 25.0 mg/kg/injection, schedule: Q01DX005 (ip), vehicle: saline with Tween-80
[20] = dose: 200.0 mg/kg/injection, schedule: Q01DX009 (ip), vehicle: saline with Tween-80

Measured: T/C

COc1c(C)cc([N+](=O)[O-])c(C)c1[N+](=O)[O-]
inactive: dose: 50.0 mg/kg/injection, schedule: Q01DX001 (ip), vehicle: Klucel (hydroxypropylcellulose) (HPC) 92 % of control | [1] 93 % of control | [2] 90 % of control

Nc1nnc(-c2ccccc2)s1
inactive: dose: 12.5 mg/kg/injection, schedule: Q01DX009 (ip), vehicle: Klucel (hydroxypropylcellulose) (HPC) 114 % of control | [3] 107 % of control | dose: 50.0 mg/kg/injection, schedule: Q01DX008 (ip), vehicle: Klucel (hydroxypropylcellulose) (HPC) 109 % of control | [4] 114 % of control | dose: 100.0 mg/kg/injection, schedule: Q01DX008 (ip), vehicle: Klucel (hydroxypropylcellulose) (HPC) 109 % of control | dose: 200.0 mg/kg/injection, schedule: Q01DX008 (ip), vehicle: Klucel (hydroxypropylcellulose) (HPC) 114 % of control

Cc1ccc(C(C)C)cc1NC(=O)c1cccnc1
inactive: [5] 98 % of control | [6] 102 % of control | [7] 92 % of control

C/C(=N\NC(=S)N1CCCCCC1)c1ccc[nH]1
inactive: [6] 111 % of control | [7] 102 % of control | dose: 400.0 mg/kg/injection, schedule: Q04DX002 (ip), vehicle: Klucel (hydroxypropylcellulose) (HPC) 107 % of control

Nc1nc(SCc2ccccc2)sc1C(=O)N1CCCCC1
inactive: [4] 100 % of control | [8] 100 % of control | [9] 101 % of control

CCc1nc(N)nc(N)c1-c1ccc(N2CCN(C)CC2)cc1
inactive: [10] 103 % of control | [11] 100 % of control | [12] 99 % of control

O=C1NC(=S)NC(=O)C1=Cc1cccc2cc3ccccc3cc12
inactive: [13] 100 % of control | [14] 89 % of control | [15] 95 % of control

Cc1ccnc(NS(=O)(=O)c2ccc(NC(=O)Nc3cccc(Cl)c3)cc2)n1
inactive: [14] 86 % of control | [15] 87 % of control | [16] 89 % of control

COc1cc(O)c(C(C)c2ccccc2)cc1N=NC(N)=O (stereo unspecified)
inactive: [17] 96 % of control | [18] 90 % of control | [19] 89 % of control

Cc1ccc2c(c1)C1(SCC(=O)N1c1ccc(Cl)cc1)C(=O)N2 (stereo unspecified)
inactive: dose: 60.0 mg/kg/injection, schedule: Q01DX005 (ip), vehicle: saline with Tween-80 101 % of control | dose: 120.0 mg/kg/injection, schedule: Q01DX005 (ip), vehicle: saline with Tween-80 100 % of control | dose: 240.0 mg/kg/injection, schedule: Q01DX005 (ip), vehicle: saline with Tween-80 100 % of control

C/C(C(=O)NC1CC1)=C(\C)c1ccc(Cl)cc1
inactive: [5] 100 % of control | [6] 103 % of control | [7] 102 % of control

CCCCCCCCCCCCCCNC(=O)C[N+](C)(C)Cc1ccccc1
inactive: dose: 0.25 mg/kg/injection, schedule: Q01DX009 (ip), vehicle: saline with Tween-80 100 % of control | dose: 0.5 mg/kg/injection, schedule: Q01DX009 (ip), vehicle: saline with Tween-80 100 % of control | dose: 1.0 mg/kg/injection, schedule: Q01DX009 (ip), vehicle: saline with Tween-80 100 % of control

CCCCCCCCCCCCCCCC(=O)OCC(COP(=O)(O)OC1CCC2(C)C(=CCC3C2CCC2(C)C(C(C)CCCC(C)C)CCC32)C1)OC(=O)CCCCCCCCCCCCCCC (stereo unspecified)
inactive: [1] 97 % of control | [2] 99 % of control | dose: 400.0 mg/kg/injection, schedule: Q01DX001 (ip), vehicle: Klucel (hydroxypropylcellulose) (HPC) 96 % of control

Clc1ccc(Oc2ccc(N3C=Nc4ccc(Oc5ccc(Cl)cc5)cc4C3)cc2)cc1
inactive: dose: 100.0 mg/kg/injection, schedule: Q01DX009 (ip), vehicle: saline with Tween-80 110 % of control | [20] 100 % of control | dose: 400.0 mg/kg/injection, schedule: Q01DX009 (ip), vehicle: saline with Tween-80 115 % of control

Cc1cccc2c(/C=C/c3ccc(N(C)C)cc3)ccnc12
inactive: [3] 105 % of control | [4] 105 % of control and 117 % of control | [8] 117 % of control | [9] 106 % of control

C=C(C)C(=O)Oc1ccccc1/C=C/C(=O)CCCCCC
inactive: [10] 98 % of control | [11] 96 % of control | [12] 88 % of control

CC1=C(C2CO2)C(=O)C(C)=C(C2CO2)C1=O (stereo unspecified)
inactive: dose: 1.56 mg/kg/injection, schedule: Q04DX002 (ip), vehicle: Klucel (hydroxypropylcellulose) (HPC) 95 % of control | dose: 3.12 mg/kg/injection, schedule: Q04DX002 (ip), vehicle: Klucel (hydroxypropylcellulose) (HPC) 93 % of control | dose: 6.25 mg/kg/injection, schedule: Q04DX002 (ip), vehicle: Klucel (hydroxypropylcellulose) (HPC) 88 % of control | dose: 12.5 mg/kg/injection, schedule: Q04DX002 (ip), vehicle: Klucel (hydroxypropylcellulose) (HPC) 89 % of control

COC(=O)c1ccccc1NC(=O)Nc1ncccn1
inactive: [4] 100 % of control | [8] 100 % of control | [9] 96 % of control

NC(=S)N/N=C/c1cc(Br)ccc1O
inactive: dose: 100.0 mg/kg/injection, schedule: Q04DX003 (ip), vehicle: saline with Tween-80 86 % of control | dose: 200.0 mg/kg/injection, schedule: Q04DX003 (ip), vehicle: saline with Tween-80 94 % of control | dose: 400.0 mg/kg/injection, schedule: Q04DX003 (ip), vehicle: saline with Tween-80 112 % of control

O=C(Nc1ccccc1)OC(CN1CCCCC1)C(CN1CCCCC1)OC(=O)Nc1ccccc1 (stereo unspecified)
inactive: dose: 12.5 mg/kg/injection, schedule: Q01DX005 (ip), vehicle: Klucel (hydroxypropylcellulose) (HPC) 99 % of control | [13] 91 % of control | [16] 87 % of control

O=C1c2ccccc2C(=O)c2c1ccc(C(=O)O)c2-c1ccc2ccccc2c1
inactive: [8] 101 % of control | [9] 116 % of control | dose: 400.0 mg/kg/injection, schedule: Q01DX009 (ip), vehicle: Klucel (hydroxypropylcellulose) (HPC) 117 % of control

O=C(N/N=C/C(O)C1OC(=O)C(O)C1O)c1ccncc1 (stereo unspecified)
inactive: [14] 105 % of control | [15] 101 % of control | [16] 99 % of control

Nc1cc2[nH]cnc2c(=O)[nH]1
inactive: dose: 6.25 mg/kg/injection, schedule: Q01DX009 (ip), vehicle: suspension in saline 109 % of control and 95 % of control | dose: 12.5 mg/kg/injection, schedule: Q01DX009 (ip), vehicle: suspension in saline 101 % of control and 113 % of control and 97 % of control | [3] 100 % of control | dose: 25.0 mg/kg/injection, schedule: Q01DX009 (ip), vehicle: suspension in saline 103 % of control and 107 % of control and 96 % of control | [4] 108 % of control | dose: 100.0 mg/kg/injection, schedule: Q01DX009 (ip), vehicle: suspension in saline 99 % of control and 113 % of control | [9] 100 % of control | [20] 95 % of control | dose: 200.0 mg/kg/injection, schedule: Q01DX009 (ip), vehicle: suspension in saline 86 % of control and 87 % of control

CC(/C=C/c1ccccc1)=N\Nc1c(F)c(F)c(F)c(F)c1F
inactive: [4] 103 % of control | [8] 102 % of control | [9] 100 % of control

COC(=O)C(CCCCNC(=O)OCc1ccccc1)NC(=O)C(CCCCNC(=O)OCc1ccccc1)NC(=O)OC(C)(C)C (stereo unspecified)
inactive: [17] 100 % of control | [18] 97 % of control | [19] 97 % of control
